Laboratory results from US8709457B2, “Hydroxylated amide skin moisturizer” (L'Oreal, priority 2006, dated 2014).

Tested on: Stratum Corneum
Assay: Dermometer, mechanical measurement of the plasticizing effect (elastic modulus of Stratum Corneum)
Settings: for plasticizing effect on the stratum corneum (in words) / ranking of plasticizing effect among tested compounds: 3% aqueous solution, 30° C., 75% RH; for Relative variation in the elastic modulus of Stratum Corneum, 2H / Relative variation in the elastic modulus of Stratum Corneum, 20H: 30° C. and 75% relative humidity, products tested at 3% in water (controls in water), mean ± standard deviation, 10 samples; for Relative variation in the elastic modulus of Stratum Corneum, 2H: 2 h after application; for Relative variation in the elastic modulus of Stratum Corneum, 20H: 20 h after application
Protocol: A test was performed to evaluate the moisturizing potential of the compounds of the invention which are formulated in a 3% aqueous solution.
Dermometer, mechanical measurement of the plasticizing effect (described by J de Rigal, J-L. Leveque, International Journal of Cosmetic Science, 1982, 247-260).
The tests carried out were performed under the standard conditions on stratum corneum in a chamber at controlled temperature and humidity (T=30° C. and RH=75%). The elastic modulus measurements are performed on each control test specimen and then 2 hours and 20 hours after application of the treatment. The relative variation in the modulus makes it possible to assess the plasticizing effect of the active agent on the Stratum Corneum.
The mean and the standard deviation were calculated on 10 stratum corneum samples.

SMILES | plasticizing effect on the stratum corneum (in words) | Relative variation in the elastic modulus of Stratum Corneum, 2H | Relative variation in the elastic modulus of Stratum Corneum, 20H | ranking of plasticizing effect among tested compounds
O=C(NCCO)[C@H](O)[C@H](O)CO [Compound 9, (2R,3R)-2,3,4-trihydroxy-N-(2-hydroxyethyl)butanamide] | significant plasticizing effect | −26 +/− 14% | −27 +/− 16% | –
NC(=O)[C@H](O)[C@H](O)CO [Compound 3, (2R,3R)-2,3,4-Trihydroxybutanamide] | significant plasticizing effect | −32 +/− 18% | −34 +/− 15% | –
CCN(CCO)C(=O)[C@H](O)[C@H](O)CO [Compound 15, (2R,3R)—N-ethyl-2,3,4-trihydroxy-N-(2-hydroxyethyl)butanamide] | significant plasticizing effect | -28 +/− 10% | −48 +/− 12% | most effective
OCC(O)CO [Glycerol, reference compound] | – | −41 ± 12% | −51 ± 15% | –
O=C([C@H](O)[C@H](O)CO)N(CCO)CCO [Compound 14, (2R,3R)-2,3,4-trihydroxy-N,N-bis(2-hydroxyethyl)butanamide] | significant plasticizing effect | −23 +/− 18% | −49 +/− 14% | most effective
NC(N)=O [Urea, reference compound] | – | −72 ± 9% | −83 ± 7% | –
C[Si](C)(C)CNC(=O)[C@H](O)[C@H](O)CO [Compound 5, (2R,3R)-2,3,4-trihydroxy-N-[(trimethylsilyl)methyl]butanamide] | significant plasticizing effect | −34 +/− 15% | −31 +/− 18% | –
